Test results reported in PMC6435658, “Investigation into the Molecular Mechanisms underlying the Anti-proliferative and Anti-tumorigenesis activities of Diosmetin against HCT-116 Human Colorectal Cancer” (Scientific Reports, 2019).
Converted amounts (≈) assume the structure as drawn.

Key:
HCT-116 cells [1] = test: NanoString nCounter gene expression profiling; assay type: cell-based, human
Method: Gene expressions of the cancer canonical pathways were measured by NanoString nCounter. HCT-116 cells were treated with Dis for 48 h and total RNA were extracted by using RNeasy Mini Kit (QiAgen, Hilden, Germany) according to the manufacture’s protocol. Concentrations of RNA were checked through NanoDrop 2000C (Thermo Scientific™, Pittsburgh, PA, USA). Pancancer pathways panel on Nanostring nCounter system (Nanostring Technologies, Inc., Seattle, WA, USA) were used to investigate the gene expression profile of cancer pathways. A total of 770 genes were investigated and compared between Dis treated and untreated cells. The list of investigated genes is provided as supplementary data (Table S1). RNA was hybridized, purified and immobilized before being aligned on the nCounter cartridge and introduced to nCounter.
Digital Analyzer was utilized for data collection according to the manufacturer’s instruction. Briefly, RNA samples were added to the master mix contain hybridization buffer and reporter CodeSet. Capture ProbeSet was added to this mixture and introduced to pre-heated 65 °C thermal cycler for 16 h incubation. After removing the unbound probe, target/probe were immobilized and aligned on the nCounter Cartridge. nCounter digital analyzer was used to collect the nCounter cartridge data and data were analyzed using nSolver 3.0 analysis software. Significant genes were choose based on the false discovery rate (FDR) <0.05 and log2 fold change ≥ ± 0.5 supplementary data (Figure S1).

caspase 3/7 = test: Caspase-Glo 3/7 bioluminescent assay; assay type: cell-based, human; conditions: HCT-116, 24 h, 48 h, 72 h, time dependent
Method: (§1) To assess the effect of Dis on caspase cascades in treated cells, activities of caspase-Glo 3/7, caspase-Glo 8 and caspase-Glo 9 assays (Promega, Madison, WI, USA) were performed. Briefly, HCT-116 cells with the density of 10^4 cells/well were seeded in 96 well-plates. Cells were treated with Dis for 24 h, 48 h and 72 h. This assay was performed in triplicates for each time point. A total of 6 wells were preserved for samples without cells but with media and reagents as the blank samples, and for the untreated cells as negative control. At the end of incubation time, 100 µl caspase-glo mixture were added to each well and incubated for 1 h in the dark according to the manufacturer’s instructions. Optical density was measured via multimode microplate reader (Tecan Infinite, Männedorf, Switzerland).

caspase 9 = test: Caspase-Glo 9 bioluminescent assay; assay type: cell-based, human; conditions: HCT-116, 24 h, 48 h, 72 h, time dependent
Method: as §1

HCT-116 cells [2] = test: Multiple cytotoxicity assay (Cellomics multiparameter cytotoxicity 3 kit); assay type: cell-based, human; conditions: HCT-116, Dis 3.58 µg/ml
Method: Cellomics multiparameter cytotoxicity 3 kit (Thermo Scientific™, Pittsburgh, PA, USA) was used to investigate the vital apoptotic events in HCT-116 cells in the presence of Dis. Cytotoxicity 3 assay was used to provide information about the changes in nuclear morphology, cell membrane integrity, cytochrome C release and mitochondrial outer membrane permeabilization (MOMP). HCT-116 cells were seeded in 24 well-plate and covered by a cover slide followed by treatment with Dis for 24 h, 48 h and 72 h. Treated cells were stained with YoYo dye (life technology, CA, USA) and Mitotracker dye (life technology, CA, USA) followed by fixation and blocking procedures according to the manufacture’s protocol. Primary cytochrome C (Thermo Scientific™, Pittsburgh, PA, USA) antibody and secondary DyLight 650 (Thermo Scientific™, Pittsburgh, PA, USA) were added to each well and incubated for 1 h in the dark. Hoechst 33342 dye (Thermo Scientific™, Pittsburgh, PA, USA) was added in the last step to stain the nuclei of the cells. Cells were washed and cover slides were transferred on the slide and introduced to confocal Leica TCS SP5 II microscope (Leica Microsystems, Mannheim, Germany). Intensity of each dye was measured by using LAS X software.

Colo205 = system: Colo205; design: method as in PMID 19424633, PMID 27176768, PMID 26847170, PMID 20183323; conditions: Colo205, 24 h treatment; ref [10],[13],[15],[47]; cited from earlier work
HepG-2 = system: HepG-2; design: method as in PMID 19424633, PMID 27176768, PMID 26847170, PMID 20183323; conditions: HepG-2, 24 h treatment; ref [10],[13],[15],[47]; cited from earlier work
MDA-MB 468 = system: MDA-MB 468; design: method as in PMID 19424633, PMID 27176768, PMID 26847170, PMID 20183323; conditions: MDA-MB 468, 24 h treatment; ref [10],[13],[15],[47]; cited from earlier work

- cleavage of caspase 3/7 (caspase 3/7): significantly increased
- cleavage of caspase 9 (caspase 9): significantly increased
Structure (SMILES): COc1ccc(-c2cc(=O)c3c(O)cc(O)cc3o2)cc1O [Dis, Diosmetin]
- gene expression of NF-ƙB inhibitor (iƙb-α) (HCT-116 cells [1]; HCT-116, Dis treated): elevates
- Log2 fold change, Fubp1 (HCT-116 cells [1]; gene Fubp1, HCT-116, Dis 48 h vs untreated): −0.5
- Log2 fold change, Prkar2b (HCT-116 cells [1]; gene Prkar2b, HCT-116, Dis 48 h vs untreated): −1.6
- Log2 fold change, bax (HCT-116 cells [1]; gene bax, HCT-116, Dis 48 h vs untreated): 0.5
- Log2 fold change, bmp8a (HCT-116 cells [1]; gene bmp8a, HCT-116, Dis 48 h vs untreated): −2.2
- Log2 fold change, ccna2 (cyclin A) (HCT-116 cells [1]; gene ccna2 (cyclin A), HCT-116, Dis 48 h vs untreated): −0.6
- Log2 fold change, ccnb1 (cyclin B) (HCT-116 cells [1]; gene ccnb1 (cyclin B), HCT-116, Dis 48 h vs untreated): −0.5
- Log2 fold change, cdc7 (HCT-116 cells [1]; gene cdc7, HCT-116, Dis 48 h vs untreated): −0.8
- Log2 fold change, cdc25 (HCT-116 cells [1]; gene cdc25, HCT-116, Dis 48 h vs untreated): −0.6
- Log2 fold change, cdkn1a (p21) (HCT-116 cells [1]; gene cdkn1a (p21), HCT-116, Dis 48 h vs untreated): 1.5
- Log2 fold change, fas (HCT-116 cells [1]; gene fas, HCT-116, Dis 48 h vs untreated): 0.8
- Log2 fold change, gadd45 (HCT-116 cells [1]; gene gadd45, HCT-116, Dis 48 h vs untreated): 0.8
- Log2 fold change, h2afx (HCT-116 cells [1]; gene h2afx, HCT-116, Dis 48 h vs untreated): −0.9
- Log2 fold change, h3f3a (h2a) (HCT-116 cells [1]; gene h3f3a (h2a), HCT-116, Dis 48 h vs untreated): −0.9
- Log2 fold change, hdac1 (HCT-116 cells [1]; gene hdac1, HCT-116, Dis 48 h vs untreated): −0.5
- Log2 fold change, hdac2 (HCT-116 cells [1]; gene hdac2, HCT-116, Dis 48 h vs untreated): −0.6
- Log2 fold change, hdac5 (HCT-116 cells [1]; gene hdac5, HCT-116, Dis 48 h vs untreated): −2.6
- Log2 fold change, hells (HCT-116 cells [1]; gene hells, HCT-116, Dis 48 h vs untreated): −0.6
- Log2 fold change, hist1h3b (HCT-116 cells [1]; gene hist1h3b, HCT-116, Dis 48 h vs untreated): −1.2
- Log2 fold change, hist1h3h (HCT-116 cells [1]; gene hist1h3h, HCT-116, Dis 48 h vs untreated): −1.5
- Log2 fold change, hspb1 (hsp27) (HCT-116 cells [1]; gene hspb1 (hsp27), HCT-116, Dis 48 h vs untreated): −2.2
- Log2 fold change, id1 (HCT-116 cells [1]; gene id1, HCT-116, Dis 48 h vs untreated): −0.5
- Log2 fold change, id2 (HCT-116 cells [1]; gene id2, HCT-116, Dis 48 h vs untreated): −2.0
- Log2 fold change, mad2l2 (HCT-116 cells [1]; gene mad2l2, HCT-116, Dis 48 h vs untreated): −0.6
- Log2 fold change, mcm2 (HCT-116 cells [1]; gene mcm2, HCT-116, Dis 48 h vs untreated): −0.6
- Log2 fold change, mcm4 (HCT-116 cells [1]; gene mcm4, HCT-116, Dis 48 h vs untreated): −0.6
- Log2 fold change, mcm7 (HCT-116 cells [1]; gene mcm7, HCT-116, Dis 48 h vs untreated): −0.6
- Log2 fold change, msh2 (HCT-116 cells [1]; gene msh2, HCT-116, Dis 48 h vs untreated): −0.7
- Log2 fold change, nbn (HCT-116 cells [1]; gene nbn, HCT-116, Dis 48 h vs untreated): −0.5
- Log2 fold change, pcna (HCT-116 cells [1]; gene pcna, HCT-116, Dis 48 h vs untreated): −0.6
- Log2 fold change, pole2 (HCT-116 cells [1]; gene pole2, HCT-116, Dis 48 h vs untreated): −1.4
- Log2 fold change, pttg2 (HCT-116 cells [1]; gene pttg2, HCT-116, Dis 48 h vs untreated): −0.9
- Log2 fold change, rad21 (HCT-116 cells [1]; gene rad21, HCT-116, Dis 48 h vs untreated): −0.8
- Log2 fold change, rbx1 (HCT-116 cells [1]; gene rbx1, HCT-116, Dis 48 h vs untreated): −1.2
- Log2 fold change, setd2 (HCT-116 cells [1]; gene setd2, HCT-116, Dis 48 h vs untreated): 0.7
- Log2 fold change, sfn (stratifin) (HCT-116 cells [1]; gene sfn (stratifin), HCT-116, Dis 48 h vs untreated): 0.6
- Log2 fold change, sin3 (HCT-116 cells [1]; gene sin3, HCT-116, Dis 48 h vs untreated): −0.5
- Log2 fold change, smad9 (HCT-116 cells [1]; gene smad9, HCT-116, Dis 48 h vs untreated): −2.7
- Log2 fold change, smc3 (HCT-116 cells [1]; gene smc3, HCT-116, Dis 48 h vs untreated): −0.7
- Log2 fold change, stmn1 (HCT-116 cells [1]; gene stmn1, HCT-116, Dis 48 h vs untreated): −1.5
- Log2 fold change, tnfrsf10b (HCT-116 cells [1]; gene tnfrsf10b, HCT-116, Dis 48 h vs untreated): 0.8
- Log2 fold change, ttk (HCT-116 cells [1]; gene ttk, HCT-116, Dis 48 h vs untreated): −1.0
- Log2 fold change, ubb (HCT-116 cells [1]; gene ubb, HCT-116, Dis 48 h vs untreated): −0.9
- Cytochrome C release (HCT-116 cells [2]): releases of Cytochrome C from mitochondria to cytosol
- mitochondrial membrane potential (HCT-116 cells [2]; Mitotracker uptake): losses of the mitochondrial membrane potential
- cell permeability (HCT-116 cells [2]; YoYo dye): increases
- IC50 (Colo205): 29 µg/mL (≈ 96.6 µM)
- IC50 (HepG-2): 12 µg/mL (≈ 40 µM)
- IC50 (MDA-MB 468): 1.35 µg/mL (≈ 4.5 µM)
